What all share (format): functional
The subject of assay [1] is Rhizomucor. Kind of assay: Antimicrobial activity against Rhizomucor spp. hyphae after 24 hrs by AFST-EUCAST method.
The subject of assay [2] is Cunninghamella bertholletiae. Nature of the assay: Antimicrobial activity against Cunninghamella bertholletiae hyphae after 24 hrs by AFST-EUCAST method.
Assay [3] has as its system Mucor. Kind of assay: Antimicrobial activity against Mucor spp. conidia after 24 hrs by AFST-EUCAST method.
Assay [4] has as its system Lichtheimia corymbifera. Kind of assay: Antimicrobial activity against Absidia corymbifera hyphae after 24 hrs by AFST-EUCAST method.
In assay [5] the test system is Syncephalastrum racemosum. Kind of assay: Antimicrobial activity against Syncephalastrum racemosum hyphae after 24 hrs by AFST-EUCAST method.
The subject of assay [6] is Lichtheimia corymbifera. Kind of assay: Antimicrobial activity against Absidia corymbifera conidia after 24 hrs by AFST-EUCAST method.
The test system of assay [7] is Rhizopus. Kind of assay: Antimicrobial activity against Rhizopus spp. hyphae after 24 hrs by AFST-EUCAST method.
Assay [8] deals with Rhizopus. Nature of the assay: Antimicrobial activity against Rhizopus spp. conidia after 24 hrs by AFST-EUCAST method.
The test system of assay [9] is Cunninghamella bertholletiae. Nature of the assay: Antimicrobial activity against Cunninghamella bertholletiae conidia after 24 hrs by AFST-EUCAST method.
For assay [10], the system named is Syncephalastrum racemosum. Kind of assay: Antimicrobial activity against Syncephalastrum racemosum conidia after 24 hrs by AFST-EUCAST method.
Assay [11] has as its system Rhizomucor. Kind of assay: Antimicrobial activity against Rhizomucor spp. conidia after 24 hrs by AFST-EUCAST method.
Assay [12] deals with Mucor. Nature of the assay: Antimicrobial activity against Mucor spp. hyphae after 24 hrs by AFST-EUCAST method.
Assay [13] has as its system Lichtheimia corymbifera. Kind of assay: Antimicrobial activity against Absidia corymbifera hyphae after 24 hrs by XTT method in presence of amphotericin B.
Assay [14] concerns Syncephalastrum racemosum. Nature of the assay: Antimicrobial activity against Syncephalastrum racemosum hyphae after 24 hrs by XTT method in presence of amphotericin B. For orientation: Formazan colour is commonly taken as a measure of viable cells.
Assay [15] deals with Mucor. Nature of the assay: Antimicrobial activity against Mucor spp. hyphae after 24 hrs by XTT method in presence of amphotericin B.
Assay [16] can be described thus: Antimicrobial activity against Rhizopus microsporus conidia after 24 hrs by XTT method in presence of amphotericin B.
For assay [17], the system named is Rhizopus arrhizus. Kind of assay: Antimicrobial activity against Rhizopus oryzae hyphae after 24 hrs by XTT method in presence of amphotericin B.
The nature of assay [18]: Antimicrobial activity against Rhizopus microsporus hyphae after 24 hrs by XTT method in presence of amphotericin B.
Assay [19] concerns Lichtheimia corymbifera. Nature of the assay: Antimicrobial activity against Absidia corymbifera conidia after 24 hrs by XTT method in presence of amphotericin B.
Assay [20] relates to Syncephalastrum racemosum. Kind of assay: Antimicrobial activity against Syncephalastrum racemosum conidia after 24 hrs by XTT method in presence of amphotericin B.
Assay [21] relates to Cunninghamella bertholletiae. Kind of assay: Antimicrobial activity against Cunninghamella bertholletiae conidia after 24 hrs by XTT method in presence of amphotericin B.
Assay [22] deals with Cunninghamella bertholletiae. Nature of the assay: Antimicrobial activity against Cunninghamella bertholletiae hyphae after 24 hrs by XTT method in presence of amphotericin B.
The test system of assay [23] is Rhizopus arrhizus. Kind of assay: Antimicrobial activity against Rhizopus oryzae conidia after 24 hrs by XTT method in presence of amphotericin B.
Assay [24] concerns Mucor. Kind of assay: Antimicrobial activity against Mucor spp. conidia after 24 hrs by XTT method in presence of amphotericin B.
For assay [25], the system named is Rhizomucor. Kind of assay: Antimicrobial activity against Rhizomucor spp. hyphae after 24 hrs by XTT method in presence of amphotericin B.
Assay [26] relates to Rhizomucor. Kind of assay: Antimicrobial activity against Rhizomucor spp. conidia after 24 hrs by XTT method in presence of amphotericin B.

Each structure is given as a SMILES string. ≈ marks a conversion by molar mass, not a printed value.

Consider `C[C@@H]1[C@H](O)[C@@H](C)/C=C/C=C/C=C/C=C/C=C/C=C/C=C/[C@H](O[C@@H]2O[C@H](C)[C@@H](O)[C@H](N)[C@@H]2O)C[C@@H]2O[C@](O)(C[C@@H](O)C[C@@H](O)[C@H](O)CC[C@@H](O)C[C@@H](O)CC(=O)O[C@H]1C)C[C@H](O)[C@H]2C(=O)O` [AMPHOTERICIN B], for which the MIC against Rhizomucor [1] was determined as 1 µg/mL (≈ 1.08 µM); in assay [2], 1 µg/mL (≈ 1.08 µM); with Mucor [3], 0.5 µg/mL (≈ 0.541 µM); against Lichtheimia corymbifera [4], 1 µg/mL (≈ 1.08 µM); in assay [5], 1 µg/mL (≈ 1.08 µM); with Lichtheimia corymbifera [6], 0.5 µg/mL (≈ 0.541 µM). In addition, the MIC in the assay with Rhizopus [7] worked out at 1 µg/mL (≈ 1.08 µM); against Rhizopus [8], 0.5 µg/mL (≈ 0.541 µM); in assay [9], 0.5 µg/mL (≈ 0.541 µM); in [10] it was 0.5 µg/mL (≈ 0.541 µM); in the assay on Rhizomucor [11], 0.5 µg/mL (≈ 0.541 µM); against Mucor [12], 1 µg/mL (≈ 1.08 µM).

For `CC[C@@H]([C@H](C)O)n1ncn(-c2ccc(N3CCN(c4ccc(OC[C@@H]5CO[C@@](Cn6cncn6)(c6ccc(F)cc6F)C5)cc4)CC3)cc2)c1=O` [POSACONAZOLE], the “fractional inhibitory concentration index (FICI)” value in the assay with Lichtheimia corymbifera [13] is recorded as 0.37; in assay [14], 0.6; in the assay on Mucor [15], 0.5; in assay [16], 0.37; in the assay with Rhizopus arrhizus [17] it was 1; in [18], 0.37. Further, the “fractional inhibitory concentration index (FICI)” value in the assay on Lichtheimia corymbifera [19] is 0.75; in assay [20], 1; in assay [21], 1.1; in assay [22], 0.5; in the assay on Rhizopus arrhizus [23] it was 0.75; in the assay with Mucor [24], 1.25. In addition, the entries for the “fractional inhibitory concentration index (FICI)” value in the assay on Rhizomucor [25] and in the assay with Rhizomucor [26] were 0.75 and 0.5, respectively. Further, the MIC is 1 µg/mL (≈ 1.43 µM) in the assay on Rhizomucor [1]; 1 µg/mL (≈ 1.43 µM) in assay [2]; 0.25 µg/mL (≈ 0.357 µM) against Mucor [3]; 1 µg/mL (≈ 1.43 µM) with Lichtheimia corymbifera [4]; 1 µg/mL (≈ 1.43 µM) in assay [5]; 0.25 µg/mL (≈ 0.357 µM) against Lichtheimia corymbifera [6]. The MIC with Rhizopus [7] was found to be 1 µg/mL (≈ 1.43 µM); against Rhizopus [8], 0.25 µg/mL (≈ 0.357 µM); in [9], 0.25 µg/mL (≈ 0.357 µM); in [10], 0.25 µg/mL (≈ 0.357 µM); against Rhizomucor [11] it was 0.25 µg/mL (≈ 0.357 µM); with Mucor [12] it was 1 µg/mL (≈ 1.43 µM).

What is called MIC is the lowest concentration that inhibits growth of the organism. Low readings indicate inhibition by little substance, high ones a need for much substance.

Values taken from ChEMBL document CHEMBL1275450, “Posaconazole enhances the activity of amphotericin B against hyphae of zygomycetes in vitro” (2008).
